Measurements as given in patent US10780184B2, “Fluorescent solid lipid nanoparticles composition and preparation thereof” (BRACCO IMAGING S.P.A., priority 2013, dated 2020).

Legend:
[1] = tendency to aggregate; cited from earlier work
[2] = UV-Vis spectra for J-aggregates evaluation; assay type: physicochemical; details: SLNs suspension up to 120 days, free ICG in aqueous solution up to 15 days
Experimental: In FIG. 4 (panel A, Example 7) there are reported the UV-Vis spectra of ICG-loaded SLNs suspension just after the formulation date and 90 and 120 days later. […] The absorbance at 800 nm is recovered at 96% with respect to the initial value. In addition, the fluorescence emission properties can be preserved by the incorporation of ICG in the SLNs over the observed period of time (data not shown).
UV-Vis spectra of ICG-loaded SLNs suspension, prepared as described in the example 4, were recorded after the end of the formulation date, 90 and 120 days later keeping the suspension at store condition. After 120 days the absorbance was recovered at 96% with respect to the initial value (FIG. 4 A).
A solution of ICG (0.14 mg/mL) was prepared in glucosate (5.5%) solution. The sample was diluted before the Uv-Vis analysis and the absorption behaviour was evaluated from 300 to 950 nm until 15 days (FIG. 4 B).

[3] = human recommended dose of 0.5 mg/kg, intravenous; cited from earlier work
[4] = Photobleaching experiment, 785 nm laser radiation; assay type: physicochemical; details: aqueous medium, 37° C., 3 sec irradiation/1 sec dark repeated for 1 h
Experimental: A further advantage of the present invention is the improved photostability of the dye with respect to the free dye in water solution. An experiment was performed in aqueous medium by the exposition of free ICG solution and the ICG loaded SLNs suspension to a 785 nm laser radiation (see FIG. 2, Example 8). The fluorescence emissions were collected by NIR fluorescent imaging system (Pearl® Impulse system by LI-COR Biosciences). […] Then, the experiment was carried out in duplicate at 37° C. irradiating both samples for 3 sec and keeping the samples in the dark for 1 sec. This sequence was repeated in continuous for 1 h.
The photobleaching experiment was performed by the exposition of free ICG aqueous solution and the ICG loaded SLNs suspension to a 785 nm laser radiation The fluorescence emissions were collected by NIR fluorescent imaging system (Pearl Impulse system by LI-COR Biosciences).
Then, the experiment was carried out in duplicate at 37° C. irradiating both samples for 3 sec and keeping the samples in the dark for 1 sec. This sequence was repeated in continuous for 1 h.

[5] = Optical properties (absorption and emission maxima, Stokes' shift); assay type: physicochemical; details: SLNs formulation (example 4) or H2O
Source text: Additional optical features (i.e. maximum absorption and emission wavelengths, Stokes' shifts) of ICG in aqueous medium and after incorporation in the SLNs are reported in Table E.

Q: What does the source list for `CC1(C)C(/C=C/C=C/C=C/C=C2/N(CCCCS(=O)(=O)[O-])c3ccc4ccccc4c3C2(C)C)=[N+](CCCCS(=O)(=O)[O-])c2ccc3ccccc3c21.[Na+]` [ICG, Indocyanine Green]?
A: time within which aqueous solution must be used [1]: ≤ 6 h; aggregates (J-aggregates) formation [2]: can aggregate in few days; blood half-time [3]: around 3.0 minutes; fluorescence emission remaining, of the initial emission fluorescence efficiency [4]: slightly above zero; A max wavelength (nm) [5]: 780 nm; Fluor. Emission λmax (nm) [5]: 809 nm; Stokes' shift [5]: 29
